Results from publication PMC7827406, “Structure–Activity Relationship (SAR) Study of Spautin-1 to Entail the Discovery of Novel NEK4 Inhibitors” (International Journal of Molecular Sciences, 2021).
Read-outs that look alike come from different tables or passages of the source.

Columns and labels:
Assay in all cases: biochemical
Parameters in all cases: Eurofins KinaseProfiler full panel at Km ATP, residual kinase activity (%) relative to DMSO
[1] = target: T1, CaMKIIγ(h) (Homo sapiens, UniProt Q13555)
T1 construct: gene CAMK2G
Procedure, shortened: (§1)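 Compounds screened at 10 µM in radiometric kinase activity assays at Km ATP, reported as remaining kinase activity (%). A KINOMEscan competition-binding screen at 10 µM measured DNA-tagged kinase retained on immobilized active-site ligand by qPCR.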

[2] = target: ErbB2(h) (Homo sapiens, UniProt P04626)
Procedure, shortened: as §1

[3] = target: FGFR2(h) (Homo sapiens, UniProt P21802)
Procedure, shortened: as §1

[4] = target: T2, GRK2(h) (Homo sapiens, UniProt P25098)
T2 sequence (P25098 1-689): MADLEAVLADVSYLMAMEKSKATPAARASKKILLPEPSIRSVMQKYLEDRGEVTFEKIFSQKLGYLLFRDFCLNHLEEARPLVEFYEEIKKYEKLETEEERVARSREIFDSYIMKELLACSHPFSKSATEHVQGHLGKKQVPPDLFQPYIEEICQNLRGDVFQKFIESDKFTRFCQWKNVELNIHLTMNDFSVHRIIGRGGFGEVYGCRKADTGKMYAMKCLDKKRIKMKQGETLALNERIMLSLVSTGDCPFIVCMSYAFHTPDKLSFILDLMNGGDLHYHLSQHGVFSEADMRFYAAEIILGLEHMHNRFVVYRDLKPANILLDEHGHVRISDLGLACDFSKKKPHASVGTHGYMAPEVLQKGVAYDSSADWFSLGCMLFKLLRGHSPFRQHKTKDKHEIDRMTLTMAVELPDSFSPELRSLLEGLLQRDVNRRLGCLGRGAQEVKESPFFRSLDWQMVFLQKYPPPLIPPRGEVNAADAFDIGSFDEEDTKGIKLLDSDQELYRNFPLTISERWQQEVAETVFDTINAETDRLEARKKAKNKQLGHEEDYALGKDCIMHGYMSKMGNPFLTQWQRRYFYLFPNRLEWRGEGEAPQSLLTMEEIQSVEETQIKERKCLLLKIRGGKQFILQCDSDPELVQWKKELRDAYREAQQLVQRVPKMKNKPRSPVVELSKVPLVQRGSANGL
Procedure, shortened: as §1

[5] = target: Lyn(m) (Mus musculus, UniProt P25911)
Procedure, shortened: as §1

[6] = target: T3, Mer(h) (Homo sapiens, UniProt Q12866)
T3 construct: gene MERTK
T3 sequence (Q12866 1-999): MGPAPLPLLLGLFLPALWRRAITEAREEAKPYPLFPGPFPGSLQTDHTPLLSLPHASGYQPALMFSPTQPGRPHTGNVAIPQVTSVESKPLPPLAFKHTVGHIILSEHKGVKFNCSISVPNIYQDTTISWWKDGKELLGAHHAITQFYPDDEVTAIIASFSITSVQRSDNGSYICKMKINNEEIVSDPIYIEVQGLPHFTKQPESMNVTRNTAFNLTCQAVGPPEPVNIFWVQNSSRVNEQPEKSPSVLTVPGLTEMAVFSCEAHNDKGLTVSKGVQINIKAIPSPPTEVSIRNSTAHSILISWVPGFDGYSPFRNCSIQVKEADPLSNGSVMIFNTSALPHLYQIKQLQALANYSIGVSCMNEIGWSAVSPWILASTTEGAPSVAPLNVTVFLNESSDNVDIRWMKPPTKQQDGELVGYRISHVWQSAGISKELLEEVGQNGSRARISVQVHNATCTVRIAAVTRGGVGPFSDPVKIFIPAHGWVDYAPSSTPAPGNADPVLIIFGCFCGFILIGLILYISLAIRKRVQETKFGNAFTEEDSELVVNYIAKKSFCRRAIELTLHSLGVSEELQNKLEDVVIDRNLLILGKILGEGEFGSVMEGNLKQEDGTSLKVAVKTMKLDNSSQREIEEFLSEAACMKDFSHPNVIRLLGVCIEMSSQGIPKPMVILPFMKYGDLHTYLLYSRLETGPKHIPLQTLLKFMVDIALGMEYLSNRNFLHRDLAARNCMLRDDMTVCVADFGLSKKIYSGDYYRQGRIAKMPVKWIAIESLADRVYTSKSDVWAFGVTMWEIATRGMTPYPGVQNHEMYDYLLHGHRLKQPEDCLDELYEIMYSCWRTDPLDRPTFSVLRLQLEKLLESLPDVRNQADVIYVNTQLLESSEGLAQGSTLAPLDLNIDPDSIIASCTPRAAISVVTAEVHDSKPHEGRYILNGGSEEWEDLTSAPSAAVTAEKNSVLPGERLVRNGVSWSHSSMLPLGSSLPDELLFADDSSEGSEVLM
Procedure, shortened: as §1

[7] = target: RIPK2(h) (Homo sapiens, UniProt O43353)
Procedure, shortened: as §1

[8] = target: Ret (V804L)(h) (Homo sapiens, UniProt P07949, V804L)
Procedure, shortened: as §1

[9] = target: T4, Wee1B(h) (Homo sapiens, UniProt P0C1S8)
T4 construct: gene WEE2
Procedure, shortened: as §1

[10] = read-out: Residual activity (%) 5ay
[11] = read-out: Residual activity (%) Spautin-1 5aa
[12] = read-out: Residual activity (%) 5at
[13] = read-out: Residual activity (%) 5as

Chain of RIPK2(h) (O43353 whole entry): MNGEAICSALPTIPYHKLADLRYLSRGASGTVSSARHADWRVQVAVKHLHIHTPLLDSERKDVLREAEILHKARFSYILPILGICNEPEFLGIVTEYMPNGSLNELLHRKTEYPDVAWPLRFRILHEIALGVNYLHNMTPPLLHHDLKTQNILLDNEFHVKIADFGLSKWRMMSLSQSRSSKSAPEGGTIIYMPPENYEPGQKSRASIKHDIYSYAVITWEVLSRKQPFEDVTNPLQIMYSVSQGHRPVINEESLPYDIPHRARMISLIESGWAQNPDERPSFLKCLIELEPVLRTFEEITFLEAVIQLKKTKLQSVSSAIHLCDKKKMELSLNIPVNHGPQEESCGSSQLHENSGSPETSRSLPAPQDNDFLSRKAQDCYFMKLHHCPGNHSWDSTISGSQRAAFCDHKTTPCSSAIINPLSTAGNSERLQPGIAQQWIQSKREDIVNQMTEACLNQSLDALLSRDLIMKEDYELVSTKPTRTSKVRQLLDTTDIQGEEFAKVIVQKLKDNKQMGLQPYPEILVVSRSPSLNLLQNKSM
Chain of FGFR2(h) (P21802 whole entry): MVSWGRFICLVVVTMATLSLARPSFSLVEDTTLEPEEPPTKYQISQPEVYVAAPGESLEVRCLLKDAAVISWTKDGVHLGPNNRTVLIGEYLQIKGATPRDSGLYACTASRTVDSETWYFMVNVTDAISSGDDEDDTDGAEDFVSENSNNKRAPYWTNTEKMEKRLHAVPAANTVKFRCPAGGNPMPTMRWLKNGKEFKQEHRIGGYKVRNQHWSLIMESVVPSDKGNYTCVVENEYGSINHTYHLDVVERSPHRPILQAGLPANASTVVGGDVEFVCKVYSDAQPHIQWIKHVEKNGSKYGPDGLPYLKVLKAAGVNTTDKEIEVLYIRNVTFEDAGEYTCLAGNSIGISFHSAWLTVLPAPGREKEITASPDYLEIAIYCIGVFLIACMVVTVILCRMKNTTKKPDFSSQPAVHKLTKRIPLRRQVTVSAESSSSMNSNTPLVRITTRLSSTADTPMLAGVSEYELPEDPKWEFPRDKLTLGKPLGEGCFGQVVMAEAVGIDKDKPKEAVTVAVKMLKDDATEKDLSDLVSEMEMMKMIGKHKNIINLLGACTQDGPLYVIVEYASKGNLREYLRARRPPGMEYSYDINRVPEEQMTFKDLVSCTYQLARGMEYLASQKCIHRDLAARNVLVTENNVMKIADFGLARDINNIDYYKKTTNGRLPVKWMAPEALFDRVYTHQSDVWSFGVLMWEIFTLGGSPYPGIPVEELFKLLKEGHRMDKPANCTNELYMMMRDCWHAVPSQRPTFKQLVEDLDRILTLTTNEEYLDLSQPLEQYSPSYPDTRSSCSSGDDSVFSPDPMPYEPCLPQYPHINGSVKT
Chain of Lyn(m) (P25911 whole entry): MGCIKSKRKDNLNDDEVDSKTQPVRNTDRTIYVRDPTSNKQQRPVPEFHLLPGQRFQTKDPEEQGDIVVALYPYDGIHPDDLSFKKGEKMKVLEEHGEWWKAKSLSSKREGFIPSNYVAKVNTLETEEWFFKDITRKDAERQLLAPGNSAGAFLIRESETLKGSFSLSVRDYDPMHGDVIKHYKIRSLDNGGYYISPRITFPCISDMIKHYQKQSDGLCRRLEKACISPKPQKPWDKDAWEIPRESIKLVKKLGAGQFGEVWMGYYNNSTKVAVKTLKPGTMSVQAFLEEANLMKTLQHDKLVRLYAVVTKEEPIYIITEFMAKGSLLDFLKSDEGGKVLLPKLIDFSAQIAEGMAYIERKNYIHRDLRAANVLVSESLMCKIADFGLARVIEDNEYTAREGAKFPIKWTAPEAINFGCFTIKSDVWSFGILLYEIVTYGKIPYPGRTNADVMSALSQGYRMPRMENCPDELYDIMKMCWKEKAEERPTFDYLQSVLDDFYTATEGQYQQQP
Chain of Ret (V804L)(h) (P07949 whole entry V804L): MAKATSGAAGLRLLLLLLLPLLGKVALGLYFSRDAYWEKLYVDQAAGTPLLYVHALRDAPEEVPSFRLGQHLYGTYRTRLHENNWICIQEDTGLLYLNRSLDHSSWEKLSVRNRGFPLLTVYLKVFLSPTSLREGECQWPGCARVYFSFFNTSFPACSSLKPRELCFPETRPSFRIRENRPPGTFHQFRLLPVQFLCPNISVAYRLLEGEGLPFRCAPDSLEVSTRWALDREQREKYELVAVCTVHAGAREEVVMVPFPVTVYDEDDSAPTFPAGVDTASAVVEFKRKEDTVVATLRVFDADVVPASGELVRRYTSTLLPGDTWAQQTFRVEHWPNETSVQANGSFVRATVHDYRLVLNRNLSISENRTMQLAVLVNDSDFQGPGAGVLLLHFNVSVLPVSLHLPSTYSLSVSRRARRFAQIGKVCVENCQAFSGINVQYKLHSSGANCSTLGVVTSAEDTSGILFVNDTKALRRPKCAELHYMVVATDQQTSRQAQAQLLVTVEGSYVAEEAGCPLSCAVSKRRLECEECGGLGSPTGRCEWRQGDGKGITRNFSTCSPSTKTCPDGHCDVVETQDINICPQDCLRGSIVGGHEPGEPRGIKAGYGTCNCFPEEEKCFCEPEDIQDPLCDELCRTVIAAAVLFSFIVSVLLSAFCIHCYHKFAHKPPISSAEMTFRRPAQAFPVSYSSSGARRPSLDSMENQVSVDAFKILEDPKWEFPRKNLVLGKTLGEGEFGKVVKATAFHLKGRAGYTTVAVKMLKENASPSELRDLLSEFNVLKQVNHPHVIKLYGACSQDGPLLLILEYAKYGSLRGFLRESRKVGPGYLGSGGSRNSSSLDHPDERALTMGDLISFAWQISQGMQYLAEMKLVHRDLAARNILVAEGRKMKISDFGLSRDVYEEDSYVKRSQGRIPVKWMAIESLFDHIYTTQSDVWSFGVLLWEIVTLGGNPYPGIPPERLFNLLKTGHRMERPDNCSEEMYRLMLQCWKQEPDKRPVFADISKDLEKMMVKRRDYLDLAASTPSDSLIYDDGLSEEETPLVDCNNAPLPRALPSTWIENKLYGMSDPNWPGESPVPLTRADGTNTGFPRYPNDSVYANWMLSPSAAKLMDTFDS
T4 sequence (P0C1S8 whole entry): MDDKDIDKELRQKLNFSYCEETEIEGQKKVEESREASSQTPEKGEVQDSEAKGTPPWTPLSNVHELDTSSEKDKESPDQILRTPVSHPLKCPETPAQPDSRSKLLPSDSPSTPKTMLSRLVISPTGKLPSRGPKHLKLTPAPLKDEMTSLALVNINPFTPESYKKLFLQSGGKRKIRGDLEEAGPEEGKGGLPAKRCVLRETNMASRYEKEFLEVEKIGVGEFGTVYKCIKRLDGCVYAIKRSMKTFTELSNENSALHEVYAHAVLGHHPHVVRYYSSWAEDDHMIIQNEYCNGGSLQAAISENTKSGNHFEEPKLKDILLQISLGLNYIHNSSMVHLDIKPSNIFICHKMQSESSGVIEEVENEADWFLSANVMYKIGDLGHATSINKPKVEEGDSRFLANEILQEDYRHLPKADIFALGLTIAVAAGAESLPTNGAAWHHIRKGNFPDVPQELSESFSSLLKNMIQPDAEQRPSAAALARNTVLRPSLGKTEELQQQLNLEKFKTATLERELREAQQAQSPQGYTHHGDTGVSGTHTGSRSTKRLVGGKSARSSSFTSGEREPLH
Chain of ErbB2(h) (P04626 whole entry): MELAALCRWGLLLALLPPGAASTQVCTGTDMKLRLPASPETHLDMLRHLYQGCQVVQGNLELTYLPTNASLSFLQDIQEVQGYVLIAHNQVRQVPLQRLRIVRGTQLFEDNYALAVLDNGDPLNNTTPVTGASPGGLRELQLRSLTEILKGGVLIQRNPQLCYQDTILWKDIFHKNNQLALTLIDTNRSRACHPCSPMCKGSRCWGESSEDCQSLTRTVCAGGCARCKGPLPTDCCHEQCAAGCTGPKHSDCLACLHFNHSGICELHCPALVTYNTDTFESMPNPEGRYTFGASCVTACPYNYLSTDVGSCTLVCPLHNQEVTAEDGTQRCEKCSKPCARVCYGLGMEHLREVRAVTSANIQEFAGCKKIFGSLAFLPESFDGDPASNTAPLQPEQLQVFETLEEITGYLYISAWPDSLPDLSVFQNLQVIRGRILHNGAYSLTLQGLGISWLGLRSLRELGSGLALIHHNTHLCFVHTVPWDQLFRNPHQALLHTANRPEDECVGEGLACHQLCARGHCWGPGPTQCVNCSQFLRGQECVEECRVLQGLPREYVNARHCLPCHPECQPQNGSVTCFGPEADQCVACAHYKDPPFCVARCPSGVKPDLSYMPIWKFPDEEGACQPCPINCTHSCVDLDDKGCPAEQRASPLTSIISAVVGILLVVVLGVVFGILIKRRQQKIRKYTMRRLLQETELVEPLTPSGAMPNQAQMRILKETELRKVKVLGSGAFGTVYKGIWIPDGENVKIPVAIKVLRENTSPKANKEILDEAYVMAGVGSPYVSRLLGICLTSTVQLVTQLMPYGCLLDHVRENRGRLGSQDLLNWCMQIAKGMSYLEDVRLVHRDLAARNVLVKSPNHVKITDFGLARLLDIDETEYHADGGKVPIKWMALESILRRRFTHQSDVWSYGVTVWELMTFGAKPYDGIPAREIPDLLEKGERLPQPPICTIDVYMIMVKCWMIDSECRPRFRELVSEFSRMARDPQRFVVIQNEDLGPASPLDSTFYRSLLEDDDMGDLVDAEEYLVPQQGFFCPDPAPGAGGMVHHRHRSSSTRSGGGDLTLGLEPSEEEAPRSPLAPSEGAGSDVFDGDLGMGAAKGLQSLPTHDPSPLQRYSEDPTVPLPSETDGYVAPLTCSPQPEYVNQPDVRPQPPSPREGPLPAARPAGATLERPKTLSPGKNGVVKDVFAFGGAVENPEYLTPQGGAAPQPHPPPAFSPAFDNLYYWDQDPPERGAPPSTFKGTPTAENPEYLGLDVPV

COc1ccc2ncnc(Nc3cccc(F)c3)c2c1 [5ay, N-(3-Fluorophenyl)-6-Methoxy-4-Quinazolinamine] showed a remaining activity at 10 µM [1, 10] of 41%, a remaining activity at 10 µM [2, 10] of 20% and a remaining activity at 10 µM [3, 10] of 96%. The remaining activity at 10 µM [4, 10] was 95%, the remaining activity at 10 µM [5, 10] was 93% and the remaining activity at 10 µM [6, 10] was 68%. It also gave a remaining activity at 10 µM [7, 10] of 22%, a remaining activity at 10 µM [8, 10] of 91% and a remaining activity at 10 µM [9, 10] of 106%.

In the case of Fc1ccc(CNc2ncnc3ccc(F)cc23)cc1 [5aa, 6-Fluoro-N-(4-fluorobenzyl)-4-Quinazolinamine], the remaining activity at 10 µM [1, 11] is reported as 83%, the remaining activity at 10 µM [2, 11] is reported as 74% and the remaining activity at 10 µM [3, 11] is reported as 91%. The remaining activity at 10 µM [4, 11] was 107%, the remaining activity at 10 µM [5, 11] was 81% and the remaining activity at 10 µM [6, 11] was 83%. The remaining activity at 10 µM [7, 11] was 82%, the remaining activity at 10 µM [8, 11] was 82% and the remaining activity at 10 µM [9, 11] was 95%.

Fc1ccc2ncnc(NCCc3ccc(Cl)cc3)c2c1 [5at, N-[2-(4-Chlorophenyl)Ethyl]-6-Fluoro-4-Quinazolinamine] showed a remaining activity at 10 µM [1, 12] of 75%, a remaining activity at 10 µM [2, 12] of 65% and a remaining activity at 10 µM [3, 12] of 84%. The remaining activity at 10 µM [4, 12] was 107%, the remaining activity at 10 µM [5, 12] was 77% and the remaining activity at 10 µM [6, 12] was 89%. It also gave a remaining activity at 10 µM [7, 12] of 86%, a remaining activity at 10 µM [8, 12] of 71% and a remaining activity at 10 µM [9, 12] of 100%.

For Fc1ccc(CCNc2ncnc3ccc(F)cc23)cc1 [5as, 6-Fluoro-N-[2-(4-Fluorophenyl)Ethyl]-4-Quinazolinamine], the remaining activity at 10 µM [1, 13] was 74%, the remaining activity at 10 µM [2, 13] was 79% and the remaining activity at 10 µM [3, 13] was 99%. It also gave a remaining activity at 10 µM [4, 13] of 101%, a remaining activity at 10 µM [5, 13] of 91% and a remaining activity at 10 µM [6, 13] of 83%. The remaining activity at 10 µM [7, 13] was 86%, the remaining activity at 10 µM [8, 13] was 78% and the remaining activity at 10 µM [9, 13] was 99%.
